Measurements from patent US20230172945A1, “APPLICATION OF COMPOUNDS IN CONTROLLING OR KILLING MITES” (SMILEBIOTEK ZHUHAI LIMITED, priority 2020, published 2023).

Test system: D. folliculorum
Experiment: In-vitro culture of Demodex mites: effect of compounds on survival time
Type: cell-based
Settings: for Survival time: in vitro, 35 μL solution in 10% DMSO on glass slide, observed every 2 hours, mean ± spread; for Survival time / survival time of the Demodex mites in vitro: 20° C., humidity 96%; for survival time of the Demodex mites in vitro: compared with negative control 10% DMSO (80.79±25.34); for effect on survival time of mites as compared with the control group (in words): versus 10% DMSO negative control
Protocol: The powders of the reference compounds shown in Table 1 were separately dissolved in dimethyl sulfoxide (DMSO), and then diluted with sterilized double-distilled water to make the final concentration of DMSO 10%, which could not shorten the survival time of Demodex mites as per a controlled study. The negative control group received DMSO mixed with sterilized water at a final concentration of 10%.
35 μL of each solution was added to a glass slide, and the survival of the mites was observed under an optical microscope every 2 hours. During the experiment, the Demodex mites were observed by two skilled operators separately for the activities (bodies, limbs and the like) through the microscope to determine whether they were dead or not. If the two operators gave different results, the survival status was determined independently by a third skilled operator. The in-vitro culture was conducted in a climatic chamber at a temperature of 20° C. and a humidity of 96%. During the observation, the glass slides were transported in a wet box to ensure the high humidity.
In this experiment, statistical analysis was conducted using SPSS22.0 statistical software, normality test was conducted using Shapiro-Wilk test, and homogeneity of variance test was conducted using Bartlett's test.
Effects of compounds on survival time of D. folliculorum The in-vitro culture of the Demodex mites was conducted in an environment at a humidity of 96% and a temperature of 20° C. The survival of the Demodex mites was observed dynamically and the survival time was recorded.

C=C[C@H]1[C@H](O[C@@H]2O[C@H](CO)[C@@H](O)[C@H](O)[C@H]2O)OC=C2C(=O)OCC[C@]21O [Swertiamarin]
Survival time: 59.68 ± 10.97 h

C[C@@H]1[C@H]2[C@H](O[C@@H]3O[C@H](CO)[C@@H](O)[C@H](O)[C@H]3O)OC=C(C(=O)O)[C@H]2C[C@@H]1O [Loganic acid]
Survival time: 61.56 ± 22.84 h

COc1ccc(-c2cc(=O)c3c(O)cc(O)cc3o2)cc1O [Diosmetin]
survival time of the Demodex mites in vitro: 35.92±14.82
Survival time: 35.92 ± 14.82 h
effect on survival time of mites as compared with the control group (in words): significantly shorten the survival time of mites

C=C1CC[C@]2(C)CC[C@]3(C)[C@H](CC[C@@H]4[C@@]5(C)CC[C@H](OC(C)=O)C(C)(C)[C@@H]5CC[C@]43C)[C@H]2[C@@H]1C [Taraxasterol acetate]
survival time of the Demodex mites in vitro: 37.91±20.96
Survival time: 34.14 ± 22.96 h
effect on survival time of mites as compared with the control group (in words): significantly shorten the survival time of mites

C=C(C)[C@@H]1CC[C@]2(C)CC[C@]3(C)[C@H](CC[C@@H]4[C@@]5(C)CCC(=O)C(C)(C)[C@@H]5CC[C@]43C)[C@@H]12 [Lupenone]
Survival time: 66.25 ± 31.22 h

CC(=O)O[C@H]1CC[C@]2(C)[C@H]3CC[C@]4(C)C(=CC[C@@]5(C)CCC(C)(C)C[C@H]54)[C@]3(C)CC[C@H]2C1(C)C [Taraxeryl acetate]
Survival time: 70.57 ± 27.45 h

C=C[C@H]1[C@H](O[C@@H]2O[C@H](CO)[C@@H](O)[C@H](O)[C@H]2O)OC=C2C(=O)OCC[C@H]21 [Sweroside]
Survival time: 60.79 ± 25.98 h

C=C1CC[C@]2(C)CC[C@]3(C)[C@H](CC[C@@H]4[C@@]5(C)CC[C@H](O)C(C)(C)[C@@H]5CC[C@]43C)[C@H]2[C@@H]1C [Taraxasterol]
Survival time: 68.28 ± 31.30 h

C=C(C)[C@@H]1CC[C@]2(C)[C@H](CC=C3[C@@H]4[C@@H](C)[C@H](C)CC[C@]4(C)CC[C@]32C)[C@@]1(C)CCC(=O)O [Roburic acid]
Survival time: 63.41 ± 12.20 h

C=C[C@@H]1C2=CCOC(=O)C2=CO[C@H]1O[C@@H]1O[C@H](CO)[C@@H](O)[C@H](O)[C@H]1O [Gentiopicroside]
survival time of the Demodex mites in vitro: 37.31±36.06
Survival time: 37.31 ± 36.06 h
effect on survival time of mites as compared with the control group (in words): significantly shorten the survival time of mites

CC1(C)CC[C@]2(C)CC=C3[C@]4(C)CC[C@H]5C(C)(C)[C@@H](O)CC[C@]5(C)[C@H]4CC[C@@]3(C)[C@@H]2C1 [Taraxerol]
survival time of the Demodex mites in vitro: 37.91±20.96
Survival time: 37.91 ± 20.96 h
effect on survival time of mites as compared with the control group (in words): significantly shorten the survival time of mites

CC1(C)CC[C@]2(C)CC=C3[C@]4(C)CC[C@H]5C(C)(C)C(=O)CC[C@]5(C)[C@H]4CC[C@@]3(C)[C@@H]2C1 [Taraxerone]
Survival time: 62.06 ± 28.97 h
